These results are taken from ChEMBL document CHEMBL1151820, “Antagonists of the P2X(7) receptor. From lead identification to drug development” (J Med Chem, 2009).

Bounds are passed on as bounds.

A short description of series [1]: Protein binding in rat plasma. The format is ADME, cell-free. The note with it: read-out: PB (converted).
In series [2] the target is T1, P2X purinoceptor 7 (Rattus norvegicus, UniProt Q64663).
T1 sequence (Q64663 whole entry): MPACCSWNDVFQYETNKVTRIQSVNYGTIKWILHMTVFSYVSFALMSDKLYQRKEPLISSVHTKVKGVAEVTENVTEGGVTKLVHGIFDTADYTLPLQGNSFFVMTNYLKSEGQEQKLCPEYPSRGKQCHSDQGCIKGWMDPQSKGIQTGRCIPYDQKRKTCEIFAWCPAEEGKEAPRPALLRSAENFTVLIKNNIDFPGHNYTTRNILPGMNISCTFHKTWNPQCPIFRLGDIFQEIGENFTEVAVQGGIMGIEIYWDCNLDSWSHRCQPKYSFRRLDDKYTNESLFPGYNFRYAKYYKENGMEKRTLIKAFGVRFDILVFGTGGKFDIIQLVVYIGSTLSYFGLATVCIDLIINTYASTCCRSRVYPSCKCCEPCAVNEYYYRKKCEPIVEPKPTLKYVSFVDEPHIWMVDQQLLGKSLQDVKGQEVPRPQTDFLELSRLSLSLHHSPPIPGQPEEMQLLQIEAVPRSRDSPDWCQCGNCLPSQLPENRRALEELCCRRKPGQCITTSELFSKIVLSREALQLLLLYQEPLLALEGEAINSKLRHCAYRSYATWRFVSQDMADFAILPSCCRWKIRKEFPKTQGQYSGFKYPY
Put plainly: Activity at rat P2X7 receptor expressed in HEK cells assessed as effect on BzATP-induced ethidium uptake. The format is cell-based, HEK293.

Series [3] has as its target T2, P2X purinoceptor 7 (Homo sapiens, UniProt Q99572).
T2 sequence (Q99572 whole entry): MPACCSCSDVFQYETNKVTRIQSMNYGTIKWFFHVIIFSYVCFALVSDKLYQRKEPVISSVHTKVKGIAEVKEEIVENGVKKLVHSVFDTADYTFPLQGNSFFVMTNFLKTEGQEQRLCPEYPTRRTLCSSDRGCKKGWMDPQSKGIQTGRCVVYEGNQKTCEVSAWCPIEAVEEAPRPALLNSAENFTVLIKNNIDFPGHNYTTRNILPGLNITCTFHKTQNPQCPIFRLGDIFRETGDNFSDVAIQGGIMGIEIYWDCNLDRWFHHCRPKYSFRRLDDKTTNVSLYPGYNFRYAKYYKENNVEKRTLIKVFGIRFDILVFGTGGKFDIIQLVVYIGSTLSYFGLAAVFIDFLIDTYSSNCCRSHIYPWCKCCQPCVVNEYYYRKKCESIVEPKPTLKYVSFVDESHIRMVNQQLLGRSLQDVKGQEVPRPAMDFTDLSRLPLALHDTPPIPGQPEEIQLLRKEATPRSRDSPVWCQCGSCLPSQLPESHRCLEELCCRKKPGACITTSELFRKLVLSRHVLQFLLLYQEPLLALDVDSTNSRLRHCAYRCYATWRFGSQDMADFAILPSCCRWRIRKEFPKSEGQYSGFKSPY
The series can be described thus: Antagonist activity at P2X7 receptor in human THP1 cells assessed as inhibition of BzATP-induced ethidium uptake. The format is functional, cell-based, THP-1.

Series [4] deals with Rattus norvegicus. The series can be described thus: Antinociceptive activity in ip dosed rat Chung model of neuropathic pain. The format is functional.
Series [5] can be described thus: Volume of distribution at steady state in rat. The format is ADME, organism-based. The note with it: in vivo, read-out: Vdss.
The nature of series [6]: Half life in rat. The series is classed as ADME, organism-based. Conditions: in vivo.
The nature of series [7]: Plasma clearance in rat. The format is ADME, organism-based.
For series [8], the system named is Mus musculus. Put plainly: In vivo receptor activity at P2X7 receptor in mouse model assessed as ATP-induced IL1-beta release. The format is functional.
Series [9] can be described thus: Bioavailability in rat. The series is classed as ADME, organism-based. Conditions: in vivo.
Series [10] addresses T2, P2X purinoceptor 7. The series can be described thus: Antagonist activity at human P2X7 receptor expressed in HEK293 cells assessed as inhibition of BzATP-induced calcium influx. The series is classed as functional, cell-based. Conditions: hek293.
The target of series [11] is T2, P2X purinoceptor 7. Put plainly: Antagonist activity at human P2X7 receptor expressed in HEK293 cells assessed as inhibition of ATP-induced ethidium uptake.
Series [12] in a line: Volume of distribution at steady state in iv dosed rat. The series is classed as ADME, organism-based. Conditions: in vivo, read-out: Vdss.
Series [13] is described as follows: Plasma clearance in iv dosed rat. The series is classed as ADME, organism-based.
Series [14] can be described thus: Oral bioavailability in rat. The series is classed as ADME, organism-based. The note with it: in vivo.
The nature of series [15]: Half life in iv dosed rat. Conditions: in vivo. The series is classed as ADME, organism-based.
Series [16] has as its target T2, P2X purinoceptor 7. Put plainly: Antagonist activity at human P2X7 receptor expressed in human U373 cells assessed as inhibition of BzATP-induced Yo-Pro uptake. The format is functional, cell-based, U-373MG ATCC.
Series [17] addresses T2, P2X purinoceptor 7. The series can be described thus: Inhibition of human P2X7 receptor assessed as inhibition of BzATP-induced IL1-beta release.
Series [18] in a line: Half life in ip dosed rat. The format is ADME, organism-based. The note with it: in vivo.
Series [19] concerns the target T3, P2X purinoceptor 7 (Homo sapiens) (UniProt Q99572).
T3 sequence (whole entry): T2 sequence (Q99572 whole entry)
Put plainly: Inhibition of human P2X7 receptor in human PBMC assessed as inhibition of BzATP-induced IL1-beta release at 0.03 uM.

Series [20] is described as follows: Terminal phase volume of distribution in Sprague-Dawley rat. The series is classed as ADME, organism-based. The note with it: in vivo, read-out: Vbeta.
A short description of series [21]: Plasma clearance in Sprague-Dawley rat. The series is classed as ADME, organism-based.
The nature of series [22]: Bioavailability in Sprague-Dawley rat. The format is ADME, organism-based. The note with it: in vivo.
Series [23] can be described thus: Half life in Sprague-Dawley rat. The note with it: in vivo. The format is ADME, organism-based.

Take `Cc1ccc(C(=O)N2CC3CNCC(C2)O3)cc1NC(=O)CC12CC3CC(CC(C3)C1)C2`: the fraction unbound in [1] is 0.34.

Consider `Cc1ccccc1Cn1cnnc1-c1cccc(Cl)c1Cl`, for which the half-maximal inhibitory concentration (IC50) is 200 nM in series [2] and 79.4 nM in series [3]. Further, the Efficacy in series [4] was determined as 68%.

As to `O=C(NCCc1ccccc1Cl)c1cc(-n2ncc(=O)[nH]c2=O)ccc1Cl`, in series [5], the Vd stood at 0.3 L/kg. This molecule showed a half-life in series [6] of 3 h. The concentration for half-maximal inhibition (IC50) in series [3] is 316 nM. In addition, the clearance in series [7] turned out to be 9 mL/min/kg. Also, in [8], the ED50 was found to be 20 mg/kg. The same molecule had a bioavailability in series [9] of 44%.

Regarding `Cc1n[nH]c(C)c1CC(=O)NCc1ccc(F)c(C(F)(F)F)c1`, the negative logarithm of the IC50 (pIC50) in series [10] is over 4.7. For the same molecule, the concentration for half-maximal inhibition (IC50) in series [11] was under 3160 nM.

`Cc1ccc2c(N/C(=N\C#N)N3CCN(C(=O)c4ccc(Cl)cc4)CC3C(C)C)cccc2n1` (centres undefined): the Vd in series [12] stood at 11.8 L/kg. The molecule also registered a clearance in series [13] of 23 mL/min/kg. The molecule further displayed a bioavailability in series [14] of 5%. Moreover, the half-life in [15] is 4.4 h.

Regarding `Fc1cccc(CNC2=N[C@@H](c3cccc(F)c3)[C@@H](c3cccc(F)c3)N2)c1`, the IC50 in series [16] was 63.1 nM; in [17], 1260 nM.

`Clc1cccc(-c2nnnn2Cc2cccnc2)c1Cl` gave a half-life in series [18] of 1 h.

With `O=C(NCC12CC3CC(CC(C3)C1)C2)c1ncnc2c1CCN(Cc1ccccc1)C2`, in [19], the inhibition turned out to be 50%.

Turning to `COc1ccc(CC(=O)NC(N/C(=N/C#N)Nc2cccc3ncccc23)C(C)(C)C)cc1OC` (centres undefined), the Vd in series [20] came to 21 L/kg. The molecule further gave a clearance in series [21] of 62 mL/min/kg. Besides, the bioavailability in [22] worked out at 20%. Moreover, the half-life in series [23] was 4 h.
